Target: T1, caspase-1 (Homo sapiens, UniProt P29466)
T1 sequence (P29466 120-297 limits assumed): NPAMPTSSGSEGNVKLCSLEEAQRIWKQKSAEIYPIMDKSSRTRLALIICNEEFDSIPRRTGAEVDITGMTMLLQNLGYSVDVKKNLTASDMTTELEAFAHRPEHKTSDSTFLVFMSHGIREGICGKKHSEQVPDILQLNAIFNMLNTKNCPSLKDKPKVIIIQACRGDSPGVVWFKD
T1 sequence (P29466 317-404 limits assumed): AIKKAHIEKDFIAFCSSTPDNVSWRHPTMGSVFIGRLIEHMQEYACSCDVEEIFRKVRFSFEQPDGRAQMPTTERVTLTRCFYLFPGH
Assay: Reaction time of probes for caspase-1
Type: biochemical
Details: probe 5 μM, Cas-1 2 U/mL, assay buffer, 37 °C
Protocol: The spectral and chemical properties of all probes were then evaluated. Upon interaction with Cas-1, the specific peptide of the probes is cleaved, leading to the disruption of the FRET process in the system and the recovery of donor fluorescence (Fig. 2a). Prior to fluorescence detection, the UV-vis absorption spectra of the probes were acquired. […] Subsequently, the sensitivity of the probes towards Cas-1 was measured in HEPES buffer (50 mM HEPES, 50 mM NaCl, 0.1% chaps, 5% glycerol, 10 mM DTT, 10 mM EDTA). […] The response differences among the probes were more intuitively observed by analyzing the standard curves of fluorescence intensity at 585 nm against the concentration of Cas-1 (Fig. 2b). […] The reaction kinetics of the probes were also measured by monitoring the fluorescence intensity of FPy1, YPy1 and WPy1 (0.5–4 μM) following incubation with Cas-1 (2 U mL^−1) (Fig. S3a–f). […] The reaction time of the probes was also investigated by monitoring the fluorescence spectra of the probes (5 μM) incubated with Cas-1 (2 U mL^−1) at various time intervals (Fig. S4a–c). […] Finally, the selectivity of the probes was evaluated. […]
To investigate the sensitivity of the probes for caspase-1, varying concentration of caspase-1 (0, 0.2, 0.4, 0.6, 0.8, 1.0, 1.25, 1.5, 1.75, 2, 2.5, 3 U/mL) were incubated with FPy1 (5 μM), YPy1 (5 μM) and WPy1 (5 μM) respectively in caspase-1 assay buffer (50 mM HEPES, 50 mM NaCl, 0.1 % chaps, 5 % glycerol, 10 mM DTT, 10 mM EDTA) at 37 °C for 2 hours. Fluorescence spectra were recorded using Hitachi F-2700 spectrophotometer with an excitation at 510 nm (Photomultiplier voltage 700 V; Slit widths ex: 10 nm and em =5.0 nm). The fluorescence intensity of FPy1, YPy1 and WPy1 at 585 nm were plotted against the concentration of caspase-1, and a linear regression fitted from the corresponding concentration of caspase-1, and linear regression was applied to determine the slope k. The limit of detection (LoD) was calculated from 3σ/k, in which σ represents the standard deviation of 15 blank measurements. […]

–FLTDG– [FPy1, RhoB donor, hNR quencher]
time to maximum fluorescence intensity at 585 nm (reaction time): ≤ 40 min

–YVADG– [YPy1, caspase-1-responsive FRET probe with recognition peptide –YVADG–; RhoB donor, hNR quencher]
time to maximum fluorescence intensity at 585 nm (reaction time): 60 min

From article PMC12598616, “Design and optimization of caspase-1-responsive fluorescent probes for pyroptosis imaging and anti-pyroptosis drug screening” (Chemical Science, 2025)
